Values of other authors, collected in patent publication JP2021073187A, “即効型インスリン組成物” (Eli Lilly and Co, priority 2014, dated 2021).

Substance: インスリンリスプロ: drug substance of HUMALOG, CAS 133107-64-9; A chain SEQ ID 1, B chain SEQ ID 3 [28B−L−リジン−29B−L−プロリン ヒトインスリン]
- Potency relative to human insulin (on a molar basis): 等しい効力
- Effect after subcutaneous injection relative to injected soluble human insulin (subcutaneous injection): 迅速で短い持続時間
